Test results: patent US12522601B2, “1,3,4-oxadiazole derivative compounds as histone deacetylase 6 inhibitor, and the pharmaceutical composition comprising the same” (CHONG KUN DANG PHARMACEUTICAL CORP., priority 2020, dated 2026)

What was measured:
human recombinant HDAC6 = biological target: T1, human recombinant HDAC6 (Homo sapiens, UniProt Q9UBN7); experiment: In vitro HDAC enzyme activity inhibition assay, HDAC6 (HDAC Fluorimetric Drug Discovery Kit); assay type: biochemical; conditions: for HDAC6 Selectivity (fold): HDAC6 versus HDAC1; for IC50: human recombinant HDAC6, same protocol as the HDAC1 test
T1 construct: purchased Calbiochem Inc. 382180
T1 sequence (Q9UBN7 1-1215): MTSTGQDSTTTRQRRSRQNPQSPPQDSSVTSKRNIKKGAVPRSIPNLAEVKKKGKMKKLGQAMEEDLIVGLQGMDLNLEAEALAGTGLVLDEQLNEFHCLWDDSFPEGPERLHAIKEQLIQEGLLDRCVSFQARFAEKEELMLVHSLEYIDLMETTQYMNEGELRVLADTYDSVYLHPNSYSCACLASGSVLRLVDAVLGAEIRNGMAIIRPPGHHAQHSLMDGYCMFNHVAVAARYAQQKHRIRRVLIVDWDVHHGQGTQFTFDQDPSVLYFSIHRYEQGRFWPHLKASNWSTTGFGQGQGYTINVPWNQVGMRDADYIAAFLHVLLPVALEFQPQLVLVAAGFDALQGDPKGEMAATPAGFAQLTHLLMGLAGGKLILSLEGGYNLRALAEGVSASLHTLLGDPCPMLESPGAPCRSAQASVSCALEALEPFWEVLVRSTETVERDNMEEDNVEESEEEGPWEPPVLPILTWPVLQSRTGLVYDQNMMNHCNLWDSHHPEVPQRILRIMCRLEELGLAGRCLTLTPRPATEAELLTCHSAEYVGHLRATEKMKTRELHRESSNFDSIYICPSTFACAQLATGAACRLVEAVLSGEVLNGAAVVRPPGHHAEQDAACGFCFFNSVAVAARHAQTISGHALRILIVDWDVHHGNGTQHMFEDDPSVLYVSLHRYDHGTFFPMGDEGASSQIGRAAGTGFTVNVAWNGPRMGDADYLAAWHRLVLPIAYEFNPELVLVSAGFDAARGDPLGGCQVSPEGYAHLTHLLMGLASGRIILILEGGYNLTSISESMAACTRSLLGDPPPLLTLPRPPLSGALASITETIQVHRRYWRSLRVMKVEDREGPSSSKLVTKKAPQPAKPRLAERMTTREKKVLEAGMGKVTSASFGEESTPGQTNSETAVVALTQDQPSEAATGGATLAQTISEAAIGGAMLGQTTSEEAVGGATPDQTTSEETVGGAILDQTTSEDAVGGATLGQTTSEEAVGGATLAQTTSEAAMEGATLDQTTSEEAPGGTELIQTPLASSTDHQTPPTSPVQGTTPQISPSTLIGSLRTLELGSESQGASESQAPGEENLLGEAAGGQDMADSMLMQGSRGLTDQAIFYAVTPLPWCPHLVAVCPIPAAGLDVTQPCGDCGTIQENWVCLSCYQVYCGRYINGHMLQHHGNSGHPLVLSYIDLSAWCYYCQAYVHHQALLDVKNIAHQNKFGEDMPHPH
Outline: (§1)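 Fluorimetric deacetylase kit; 0.3 μg human recombinant enzyme with 10 μM Fluor de Lys-SIRT1 substrate, 60 min at 30° C, then developer 30 min. Fluorescence read at Ex 360/Em 460; IC50 from 5-fold compound dilutions. HDAC1 and HDAC6 run by the same protocol.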

human recombinant HDAC1 = biological target: T2, human recombinant HDAC1 (Homo sapiens, UniProt Q13547); experiment: In vitro HDAC enzyme activity inhibition assay, HDAC1 (HDAC Fluorimetric Drug Discovery Kit); assay type: biochemical; conditions: human recombinant HDAC1, Fluor de Lys-SIRT1 substrate 10 μM, 30° C. for 60 minutes
T2 construct: purchased Enzo Life Sciences, Inc. BML-SE456
Outline: as §1

T2 sequence (Q13547 whole entry): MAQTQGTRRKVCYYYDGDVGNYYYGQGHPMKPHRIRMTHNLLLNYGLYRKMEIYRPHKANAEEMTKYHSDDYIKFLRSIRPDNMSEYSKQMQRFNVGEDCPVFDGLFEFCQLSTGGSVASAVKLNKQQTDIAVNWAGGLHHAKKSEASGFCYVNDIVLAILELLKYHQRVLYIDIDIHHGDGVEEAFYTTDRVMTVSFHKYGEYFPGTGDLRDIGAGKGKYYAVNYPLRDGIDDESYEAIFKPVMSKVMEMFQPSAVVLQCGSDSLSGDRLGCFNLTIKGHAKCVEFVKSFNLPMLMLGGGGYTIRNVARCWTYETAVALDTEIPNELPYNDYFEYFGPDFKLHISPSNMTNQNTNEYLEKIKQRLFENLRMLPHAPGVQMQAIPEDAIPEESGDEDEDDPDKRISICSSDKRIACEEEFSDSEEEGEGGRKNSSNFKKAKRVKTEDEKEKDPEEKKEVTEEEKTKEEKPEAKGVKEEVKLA

Compound	HDAC6 Selectivity (fold) (human recombinant HDAC6)	IC50 (human recombinant HDAC6)	IC50 (human recombinant HDAC1)
CCC(=O)N1CCN(C(=O)N(Cc2cn3ccc(-c4nnc(C(F)F)o4)cc3n2)c2ccccc2)CC1 [Compound 4041, N-((7-(5-(difluoromethyl)-1,3,4-oxadiazol-2-yl)imidazo[1,2-a]pyridin-2-yl)methyl)-N-phenyl-4-propionylpiperazine-1-carboxamide]	193 fold	259 nM	> 50000 nM
O=C(CO)N1CCN(C(=O)N(Cc2cn3ccc(-c4nnc(C(F)F)o4)cc3n2)c2ccccc2)CC1 [Compound 4042, N-((7-(5-(difluoromethyl)-1,3,4-oxadiazol-2-yl)imidazo[1,2-a]pyridin-2-yl)methyl)-4-(2-hydroxyacetyl)-N-phenylpiperazine-1-carboxamide]	197 fold	254 nM	> 50000 nM
O=C(N1CCN(c2ccccn2)CC1)N(Cc1cn2ccc(-c3nnc(C(F)F)o3)cc2n1)c1ccccc1 [Compound 4048, N-((7-(5-(difluoromethyl)-1,3,4-oxadiazol-2-yl)imidazo[1,2-a]pyridin-2-yl)methyl)-N-phenyl-4-(pyridin-2-yl)piperazine-1-carboxamide]	203 fold	247 nM	> 50000 nM
CN1CCN(C(=O)N(Cc2cn3ccc(-c4nnc(C(F)F)o4)cc3n2)c2cccc(F)c2)CC1 [Compound 4083, N-((7-(5-(difluoromethyl)-1,3,4-oxadiazol-2-yl)imidazo[1,2-a]pyridin-2-yl)methyl)-N-(3-fluorophenyl)-4-methylpiperazine-1-carboxamide]	108 fold	465 nM	> 50000 nM
CCN1CCN(C(=O)N(Cc2cn3ccc(-c4nnc(C(F)F)o4)cc3n2)c2cccc(F)c2)CC1 [Compound 4084, N-((7-(5-(difluoromethyl)-1,3,4-oxadiazol-2-yl)imidazo[1,2-a]pyridin-2-yl)methyl)-4-ethyl-N-(3-fluorophenyl)piperazine-1-carboxamide]	183 fold	273 nM	> 50000 nM
O=C(N1CCN(C2CCC2)CC1)N(Cc1cn2ccc(-c3nnc(C(F)F)o3)cc2n1)c1cccc(F)c1 [Compound 4087, 4-cyclobutyl-N-((7-(5-(difluoromethyl)-1,3,4-oxadiazol-2-yl)imidazo[1,2-a]pyridin-2-yl)methyl)-N-(3-fluorophenyl)piperazine-1-carboxamide]	214 fold	233 nM	> 50000 nM
O=C(N1CCN(C2COC2)CC1)N(Cc1cn2ccc(-c3nnc(C(F)F)o3)cc2n1)c1cccc(F)c1 [Compound 4088, N-((7-(5-(difluoromethyl)-1,3,4-oxadiazol-2-yl)imidazo[1,2-a]pyridin-2-yl)methyl)-N-(3-fluorophenyl)-4-(oxetan-3-yl)piperazine-1-carboxamide]	156 fold	320 nM	> 50000 nM
O=C(N1CCN(C2CCCCC2)CC1)N(Cc1cn2ccc(-c3nnc(C(F)F)o3)cc2n1)c1cccc(F)c1 [Compound 4089, 4-cyclohexyl-N-((7-(5-(difluoromethyl)-1,3,4-oxadiazol-2-yl)imidazo[1,2-a]pyridin-2-yl)methyl)-N-(3-fluorophenyl)piperazine-1-carboxamide]	113 fold	443 nM	> 50000 nM
O=C(N1CCN(C2CCOCC2)CC1)N(Cc1cn2ccc(-c3nnc(C(F)F)o3)cc2n1)c1cccc(F)c1 [Compound 4090, N-((7-(5-(difluoromethyl)-1,3,4-oxadiazol-2-yl)imidazo[1,2-a]pyridin-2-yl)methyl)-N-(3-fluorophenyl)-4-(tetrahydro-2H-pyran-4-yl)piperazine-1-carboxamide]	216 fold	232 nM	> 50000 nM
O=C(N1CCN(C2CCC(F)(F)CC2)CC1)N(Cc1cn2ccc(-c3nnc(C(F)F)o3)cc2n1)c1cccc(F)c1 [Compound 4091, 4-(4,4-difluorocyclohexyl)-N-((7-(5-(difluoromethyl)-1,3,4-oxadiazol-2-yl)imidazo[1,2-a]pyridin-2-yl)methyl)-N-(3-fluorophenyl)piperazine-1-carboxamide]	194 fold	257 nM	> 50000 nM

These reach a lower IC50 (human recombinant HDAC6). Values come first.

HDAC6 Selectivity (fold) (human recombinant HDAC6)	IC50 (human recombinant HDAC6)	IC50 (human recombinant HDAC1)	Compound
233 fold	214 nM	> 50000 nM	CC(C)N1CCN(C(=O)N(Cc2cn3ccc(-c4nnc(C(F)F)o4)cc3n2)c2cccc(F)c2)CC1 [Compound 4085, N-((7-(5-(difluoromethyl)-1,3,4-oxadiazol-2-yl)imidazo[1,2-a]pyridin-2-yl)methyl)-N-(3-fluorophenyl)-4-isopropylpiperazine-1-carboxamide]
249 fold	201 nM	> 50000 nM	CC(CO)N1CCN(C(=O)N(Cc2cn3ccc(-c4nnc(C(F)F)o4)cc3n2)c2cccc(F)c2)CC1 (stereo not drawn) [Compound 4086, N-((7-(5-(difluoromethyl)-1,3,4-oxadiazol-2-yl)imidazo[1,2-a]pyridin-2-yl)methyl)-N-(3-fluorophenyl)-4-(1-hydroxypropan-2-yl)piperazine-1-carboxamide]
302 fold	166 nM	> 50000 nM	O=C(C1CCC1)N1CCN(C(=O)N(Cc2cn3ccc(-c4nnc(C(F)F)o4)cc3n2)c2ccccc2)CC1 [Compound 4043, 4-(cyclobutanecarbonyl)-N-((7-(5-(difluoromethyl)-1,3,4-oxadiazol-2-yl)imidazo[1,2-a]pyridine-2-yl)methyl)-N-phenylpiperazine-1-carboxamide]
384 fold	130 nM	> 50000 nM	O=C(N1CCN(C(=O)C(F)(F)F)CC1)N(Cc1cn2ccc(-c3nnc(C(F)F)o3)cc2n1)c1ccccc1 [Compound 4044, N-((7-(5-(difluoromethyl)-1,3,4-oxadiazol-2-yl)imidazo[1,2-a]pyridin-2-yl)methyl)-N-phenyl-4-(2,2,2-trifluoroacetyl)piperazine-1-carboxamide]
392 fold	128 nM	> 50000 nM	CS(=O)(=O)N1CCN(C(=O)N(Cc2cn3ccc(-c4nnc(C(F)F)o4)cc3n2)c2ccccc2)CC1 [Compound 4045, N-((7-(5-(difluoromethyl)-1,3,4-oxadiazol-2-yl)imidazo[1,2-a]pyridin-2-yl)methyl)-4-(methylsulfonyl)-N-phenylpiperazine-1-carboxamide]
400 fold	125 nM	> 50000 nM	COC(=O)N1CCN(C(=O)N(Cc2cn3ccc(-c4nnc(C(F)F)o4)cc3n2)c2ccccc2)CC1 [Compound 4046, methyl 4-(((7-(5-(difluoromethyl)-1,3,4-oxadiazol-2-yl)imidazo[1,2-a]pyridin-2-yl)methyl)(phenyl)carbamoyl)piperazine-1-carboxylate]
400 fold	125 nM	> 50000 nM	CN(C)C(=O)N1CCN(C(=O)N(Cc2cn3ccc(-c4nnc(C(F)F)o4)cc3n2)c2ccccc2)CC1 [Compound 4047, N1-((7-(5-(difluoromethyl)-1,3,4-oxadiazol-2-yl)imidazo[1,2-a]pyridin-2-yl)methyl)-N4,N4-dimethyl-N1-phenylpiperazine-1,4-dicarboxamide]
539 fold	92.8 nM	> 50000 nM	O=C(N1CCN(c2ncccn2)CC1)N(Cc1cn2ccc(-c3nnc(C(F)F)o3)cc2n1)c1ccccc1 [Compound 4049, N-((7-(5-(difluoromethyl)-1,3,4-oxadiazol-2-yl)imidazo[1,2-a]pyridin-2-yl)methyl)-N-phenyl-4-(pyrimidin-2-yl)piperazine-1-carboxamide]
